{"source": "patent US5294632A", "about": "“Phosphono/biaryl substituted dipetide derivatives” (Ciba-Geigy Corporation, priority 1992, dated 1994)", "key": {"[1]": {"molecular_target": "T1, Neutral endopeptidase 3.4.24.11 (Rattus norvegicus, UniProt P07861)", "T1 construct": "rat kidney cortex membranes prepared by method of Maeda et al, 1983; from tissue; host or cells: rat kidney cortex membranes", "T1 sequence (P07861 1-750)": "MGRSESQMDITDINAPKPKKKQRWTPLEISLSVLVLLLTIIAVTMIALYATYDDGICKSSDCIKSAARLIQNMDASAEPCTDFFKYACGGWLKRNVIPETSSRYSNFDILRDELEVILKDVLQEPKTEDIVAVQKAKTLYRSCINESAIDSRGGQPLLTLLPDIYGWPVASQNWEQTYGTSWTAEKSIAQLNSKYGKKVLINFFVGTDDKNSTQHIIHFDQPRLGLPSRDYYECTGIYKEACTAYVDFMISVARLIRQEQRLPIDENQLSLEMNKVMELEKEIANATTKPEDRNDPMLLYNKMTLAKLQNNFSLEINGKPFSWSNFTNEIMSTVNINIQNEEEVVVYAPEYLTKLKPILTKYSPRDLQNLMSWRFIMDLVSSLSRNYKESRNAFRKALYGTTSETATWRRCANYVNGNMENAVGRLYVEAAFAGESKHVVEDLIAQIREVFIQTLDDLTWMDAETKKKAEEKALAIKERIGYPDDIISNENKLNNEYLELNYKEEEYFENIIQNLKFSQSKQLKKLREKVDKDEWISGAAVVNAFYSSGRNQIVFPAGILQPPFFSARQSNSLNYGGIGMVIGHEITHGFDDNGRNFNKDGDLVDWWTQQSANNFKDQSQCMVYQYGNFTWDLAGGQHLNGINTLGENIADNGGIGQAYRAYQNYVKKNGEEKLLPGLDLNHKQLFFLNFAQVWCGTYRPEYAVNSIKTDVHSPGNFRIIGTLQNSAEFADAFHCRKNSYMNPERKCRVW", "assay": "in vitro inhibition of neutral endopeptidase (NEP) 3.4.24.11, GAAP substrate assay", "format": "biochemical", "conditions": "rat kidney cortex membranes, 500 μM GAAP substrate, pH 7.4, 25° C., 10 minutes", "protocol": "The in vitro inhibition of neutral endopeptidase (NEP) 3.4.24.11 can be determined as follows:\nNeutral endopeptidase 3.4.24.11 activity is determined by the hydrolysis of the substrate glutaryl-Ala-Ala-Phe-2-naphthylamide (GAAP) using a modified procedure of Orlowski and Wilk (1981). The incubation mixture (total volume 125 μl) contains 4.2 μg of protein (rat kidney cortex membranes prepared by method of Maeda et al, 1983), 50 mM tris buffer, pH 7.4 at 25° C., 500 μM substrate (final concentration), and leucine aminopeptidase M (2.5 μg). The mixture is incubated for 10 minutes at 25° C. and 100 μl of fast garnet (250 μg fast garnet/ml of 10% Tween 20 in 1M sodium acetate, pH 4.2) is added. Enzyme activity is measured spectrophotometrically at 540 nm. One unit of NEP 24.11 activity is defined as 1 nmol of 2-naphthylamine released per minute at 25° C. at pH 7.4. IC50 values are determined, i.e. the concentration of test compound required for 50% inhibition of the release of 2-naphthylamine.\nThe test compound is dissolved in dimethyl sulfoxide or 0.25 M sodium bicarbonate solution, and the solution is diluted with pH 7.4 buffer to the desired concentration.\nIn vitro testing is most appropriate for the free phosphono/carboxylic acids of the invention."}, "plasma ANF levels": {"test_system": "plasma ANF levels", "assay": "effect on rat plasma ANF concentration during ANF infusion", "format": "in vivo, Male Sprague-Dawley rats", "conditions": "about 1-30 mg/kg p.o., in 10% ethanol/polyethylene glycol 400; ANF infused 450 ng/kg/min i.v.", "protocol": "The effect of the compounds of the invention on rat plasma ANF concentration can be determined as follows:\nMale Sprague-Dawley rats (275-390 g) are anesthetized with ketamine (150 mg/kg)/acepromazine (10%) and instrumented with catheters in the femoral artery and vein to obtain blood samples and infuse ANF, respectively. The rats are tethered with a swivel system and are allowed to recover for 24 hours before being studied in the conscious, unrestrained state.\nIn this assay, plasma ANF levels are determined in the presence and absence of NEP inhibition. On the day of study, all rats are infused continuously with ANF at 450 ng/kg/min. i.v. for the entire 5 hours of the experiment. Sixty minutes after beginning the infusion, blood samples for baseline ANF measurements are obtained (time 0) and the rats are then randomly divided into groups treated with the test compound or vehicle. Additional blood samples are taken 30, 60, 120, 180 and 240 minutes after administration of the test compound.\nPlasma concentrations are determined by a specific radioimmunoassay. […] The supernatant is decanted and the pellets counted in a gamma counter. […] Plasma ANF levels are expressed as a percent of those measured in vehicle-treated animals which received ANF alone (450 ng/kg/min i.v.)."}, "[2]": {"test_system": "DOCA-salt hypertensive rats", "assay": "antihypertensive effect in DOCA-salt hypertensive rats", "format": "in vivo", "conditions": "30 mg/kg p.o., in PEG 400; DOCA-salt hypertensive rat", "protocol": "The antihypertensive effect can be determined in desoxycorticosterone acetate (DOCA)-salt hypertensive rats.\nDOCA-salt hypertensive rats (280-380 g) are prepared by the standard method. Rats underwent a unilateral nephrectomy and one week later are implanted with silastic pellets containing 100 mg/kg of DOCA. The rats are maintained on 1% NaCl/0.2% KCl drinking water for three to five weeks until sustained hypertension is established. The antihypertensive activity is evaluated at this time.\nTwo days before an experiment, the rats are anesthetized with methoxyflurane and instrumented with catheters in the femoral artery to measure arterial blood pressure. Forty-eight hours later, baseline arterial pressure and heart rate are recorded during a 1 hour period. The test compound (30 mg/kg p.o.) or vehicle is then administered and the same cardiovascular parameters are monitored for an additional 5 hours."}, "ANF-induced natriuresis": {"test_system": "ANF-induced natriuresis", "assay": "potentiation of the natriuretic effect of ANF in anesthetized rats", "format": "in vivo, Male Sprague-Dawley rats", "conditions": "30 mg/Kg in polyethylene glycol 400, intraduodenally; ANF 1 μg/kg i.v. bolus", "protocol": "The potentiation of the natriuretic effect of ANF can be determined as follows:\nMale Sprague-Dawley rats (280-360 g) are anesthetized with Inactin (100 mg/kg i.p.) and instrumented with catheters in the femoral artery, femoral vein and urinary bladder to measure arterial pressure, administer ANF and collect urine, respectively. A continuous infusion of normal saline (33 μl/min) is maintained throughout the experiment to promote diuresis and sodium excretion. The experimental protocol consists of an initial 15 minute collection period (designated as pre-control) followed by three additional collection periods. Immediately after completion of the pre-control period, test compound or vehicle is administered; nothing is done for the next 45 minutes. […] At the conclusion of this period, ANF is administered (1 μg/kg i.v. bolus) to all animals and arterial pressure and renal parameters are determined during two consecutive 15 minutes collection periods.\nMean arterial pressure, urine flow and urinary sodium excretion are determined for all collection periods. Blood pressure is measured with a Gould p50 pressure transducer, urine flow is determined gravimetrically, sodium concentration is measured by flame photometry, and urinary sodium excretion is calculated as the product of urine flow and urine sodium concentration."}}, "data": [{"smiles": "O=C(O)CCNC(=O)C(Cc1ccc(-c2ccccc2)cc1)NCP(=O)(O)O", "note": "(centres unmarked) [N-[2-(phosphonomethylamino)-3-(4-biphenylyl)-propionyl]-3-aminopropionic acid]", "values": [{"measurement": "IC50", "setting": "[1]", "value": "~4.3", "unit": "nM"}]}, {"smiles": "O=C(O)CCNC(=O)[C@H](Cc1ccc(-c2ccccc2)cc1)NCP(=O)(O)O", "note": "[(S)-antipode, S-(+)-N-[2-(phosphonomethylamino)-3-(4-biphenylyl)-propionyl]-3-aminopropionic acid]", "values": [{"measurement": "IC50", "setting": "[1]", "value": "~1.6", "unit": "nM"}]}, {"smiles": "O=C(O)CCNC(=O)[C@H](Cc1ccc(-c2ccccc2)cc1)NCP(=O)(Oc1ccccc1)Oc1ccccc1", "note": "[(S)-N-[2-(diphenylphosphonomethylamino)-3-(4-biphenylyl)propionyl]-3-aminopropionic acid]", "values": [{"measurement": "increase in plasma ANF levels", "setting": "plasma ANF levels", "value": "significant increases in plasma ANF levels"}, {"measurement": "reduction in blood pressure", "setting": "[2]", "value": "significant reduction in blood pressure"}, {"measurement": "potentiation of ANF-induced natriuresis", "setting": "ANF-induced natriuresis", "value": "significant potentiation of ANF-induced natriuresis"}]}]}
